These results are taken from patent publication US11266706B2, “Method for preventing or alleviating lipid metabolism disorders using composition containing green tea extract with increased specific ingredient content” (AMOREPACIFIC CORPORATION, priority 2017, dated 2022).

The series can be described thus: Stability of each ingredient according to time and temperature (HPLC content). Format: physicochemical. Set-up: content of ingredient: unit not given here. The note with it: for stability of ingredient content over time and temperature: summary in words of Table 3, FIGS. 6 to 8. As for the experimental part: In order to compare the catechin contents of the fermented green tea extract, each sample was analyzed by WATERS 2695 HPLC manufactured by Alliance, and analyzed using an ODS (C18) column. […] Each numerical value in Table 1 indicates the wt % of the corresponding ingredient, based on the total weight ratio of the extract.

[1] abbreviates: Week 16: 45° C./Normal pressure.
Setting [2] is: Week 16: Room temperature/Normal pressure.
Setting [3] is: Week 25: 45° C./Normal pressure.
The mark [4] stands for this setting: Week 25: Refrigerated/Normal pressure.
Where [5] appears, read: Week 25: Room temperature/Normal pressure.

Take `Oc1cc(O)c2c(c1)O[C@H](c1cc(O)c(O)c(O)c1)[C@H](O)C2` [EGC, epigallocatechin]: the content of ingredient is listed as 2.12 (Day 1 (Feb. 20, 2017)); 2.12 (Week 1 (Feb. 27, 2017)); 2.19 (Week 2 (Mar. 6, 2017)); 2.50 under setting [1]; 2.84 under setting [2]; 2.28 under setting [3]. Moreover, the content of ingredient runs as follows: under setting [4], 2.61; under setting [5], 2.06.
In the case of epicatechin 3-O-gallate [ECG], the content of ingredient reads like this: (Day 1 (Feb. 20, 2017)) 2.22; (Week 1 (Feb. 27, 2017)) 2.28; (Week 2 (Mar. 6, 2017)) 2.27; under setting [1], 2.38; under setting [2], 2.36; under setting [3], 2.21. Besides, the content of ingredient is 2.15 under setting [4] and 2.02 under setting [5].
For the molecule `O=C(O[C@@H]1Cc2c(O)cc(O)cc2O[C@H]1c1cc(O)c(O)c(O)c1)c1cc(O)c(O)c(O)c1` [GCG, (−)-gallocatechin gallate], the “stability of ingredient content over time and temperature” value was “maintained relatively stably”. Further, the content of ingredient (Day 1 (Feb. 20, 2017)) is 7.80. The molecule also had a content of ingredient (Week 1 (Feb. 27, 2017)) of 7.95. The molecule further registered a content of ingredient (Week 2 (Mar. 6, 2017)) of 7.79. The content of ingredient under setting [1] stood at 8.74. The same molecule showed a content of ingredient under setting [2] of 8.72. Also, the content of ingredient under setting [3] is recorded as 7.62. This molecule also gave a content of ingredient under setting [4] of 7.93. Besides, under setting [5], the content of ingredient was 7.27.
On to (−)-epigallocatechin gallate [EGCG], for which the “stability of ingredient content over time and temperature” value was “rapidly decreased after a predetermined period”. For the same molecule, the content of ingredient (Day 1 (Feb. 20, 2017)) was determined as 7.48. Under “Week 1 (Feb. 27, 2017)”, this molecule returned a content of ingredient of 7.70. Also, the content of ingredient (Week 2 (Mar. 6, 2017)) came to 7.53. This molecule also came in with a content of ingredient under setting [1] of 7.72. Further, the content of ingredient under setting [2] came to 7.79. For the same molecule, the content of ingredient under setting [3] is 6.61. Under setting [4], this molecule returned a content of ingredient of 7.19. The same molecule yielded a content of ingredient under setting [5] of 6.19.
